According to the supplement of paper PMC10307832:

How the values were obtained:
Experiment in all cases: relative viability (nuclei count vs DMSO), 5 days (fraction); higher = more cells survive
[1] = compound: Cn1cc(-c2cnc3ccc4ccc(CS(=O)(=O)NCc5ccccn5)cc4c(=O)c3c2)cn1 [MK-8033] + Nc1ncn([C@H]2C[C@H](O)[C@@H](CO)O2)c(=O)n1 [Decitabine] (partner 2 µM)
Procedure, shortened: (§1)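 Five library-drug doses in √10 steps were combined with a fixed anchor-drug dose, or a single drug was given alone, by pin tool to lung cancer cell lines in 1536-well plates the day after seeding. Nuclei were stained and counted after 5 days. Relative viability is the nuclei count in treated wells over that in vehicle wells, taken as the median of duplicate plates.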

[2] = compound: Cn1cc(-c2cnc3ccc4ccc(CS(=O)(=O)NCc5ccccn5)cc4c(=O)c3c2)cn1 [MK-8033] + NC(=O)Nc1cc(-c2cccc(F)c2)sc1C(=O)N[C@H]1CCCNC1 [AZD7762] (partner 0.2 µM)
Procedure, shortened: as §1

[3] = compound: CCc1c2c(nc3ccc(OC(=O)N4CCC(N5CCCCC5)CC4)cc13)-c1cc3c(c(=O)n1C2)COC(=O)[C@]3(O)CC [Irinotecan] + CC1(C)CCC(c2ccc(Cl)cc2)=C(CN2CCN(c3ccc(C(=O)NS(=O)(=O)c4ccc(N[C@H](CCN5CCOCC5)CSc5ccccc5)c(S(=O)(=O)C(F)(F)F)c4)cc3)CC2)C1 [Navitoclax] (partner 0.5 µM)
Procedure, shortened: as §1

[4] = compound: Cn1cc(-c2cnc3ccc4ccc(CS(=O)(=O)NCc5ccccn5)cc4c(=O)c3c2)cn1 [MK-8033] + O=C(CCCCCCC(=O)Nc1ccccc1)NO [Vorinostat] (partner 1 µM)
Procedure, shortened: as §1

Cell Line | relative viability ([1]; first compound 0.02 µM) | relative viability ([1]; first compound 0.06325 µM) | relative viability ([1]; first compound 0.2 µM) | relative viability ([1]; first compound 0.6325 µM) | relative viability ([1]; first compound 2 µM) | relative viability ([2]; first compound 0.02 µM) | relative viability ([2]; first compound 0.06325 µM) | relative viability ([2]; first compound 0.2 µM) | relative viability ([2]; first compound 0.6325 µM) | relative viability ([2]; first compound 2 µM) | relative viability ([3]; first compound 0.6325 µM) | relative viability ([3]; first compound 2 µM) | relative viability ([3]; first compound 6.325 µM) | relative viability ([3]; first compound 20 µM) | relative viability ([4]; first compound 0.02 µM) | relative viability ([4]; first compound 0.06325 µM) | relative viability ([4]; first compound 0.2 µM) | relative viability ([4]; first compound 0.6325 µM) | relative viability ([4]; first compound 2 µM)
EMC-BAC-2 | 0.941 | 0.762 | 0.967 | 0.982 | 0.938 | 1.12 | 0.979 | 1 | 1.01 | 1.09 | 0.705 | 0.36 | 0.202 | 0.226 | 0.619 | 0.346 | 0.421 | 0.454 | 0.476
NCI-H647 | 0.33 | 0.362 | 0.382 | 0.372 | 0.305 | 0.59 | 0.452 | 0.408 | 0.471 | 0.549 | 1.03 | 0.39 | 0.194 | 0.177 | 0.633 | 0.378 | 0.527 | 0.598 | 0.75
NCI-H1944 | 0.42 | 0.388 | 0.44 | 0.456 | 0.458 | 0.549 | 0.377 | 0.525 | 0.497 | 0.561 | 0.653 | 0.26 | 0.195 | 0.205 | 0.6 | 0.579 | 0.625 | 0.59 | 0.568
PC-3 [JPC-3] | 0.803 | – | 0.748 | 0.845 | 0.804 | 0.705 | – | 0.656 | 0.843 | 0.782 | 0.703 | 0.436 | 0.307 | 0.333 | 0.886 | – | 0.77 | 0.924 | 0.817
NCI-H1975 | 0.351 | 0.328 | 0.358 | 0.342 | 0.427 | 0.72 | 0.777 | 0.691 | 0.617 | 0.689 | 1.06 | 1.11 | 0.411 | 0.167 | 0.713 | 0.669 | 0.634 | 0.695 | 0.752
HARA | 0.651 | 0.508 | 0.463 | 0.559 | 0.605 | 0.471 | 0.268 | 0.263 | 0.303 | 0.438 | 0.658 | 0.106 | 0.123 | 0.111 | 0.549 | – | 0.553 | 0.521 | 0.542
H3255 | 0.486 | – | 0.595 | 0.642 | 0.639 | 0.932 | 0.724 | 0.793 | 0.788 | 0.899 | 0.352 | 0.279 | 0.158 | 0.227 | 0.847 | – | 0.768 | 0.81 | 0.742
